# In publication PMC11111955, “Safety and efficacy evaluation of halicin as an effective drug for inhibiting intestinal infections” (Frontiers in Pharmacology, 2024):
# Read-outs that look alike come from different tables or passages of the source.
# Experiments:
# [1] = Pharmacokinetics of halicin in rat (oral)
# [2] = test system: clinical isolates of E. coli strains; experiment: MIC against clinical isolates; format: cell-based, Escherichia coli
# MRSA (BNCC 337371) = experiment: Minimum inhibitory concentration (MIC); format: cell-based, Staphylococcus aureus
structure (smiles),measurement,setting,value
Nc1nnc(Sc2ncc([N+](=O)[O-])s2)s1 [halicin],AUC0-last,[1]; High dose (50 mg/kg),459.58 ± 34.53 ng·h/mL
same,AUC0-∞,[1]; High dose (50 mg/kg),510.86 ± 46.62 ng·h/mL
same,Cl/F,[1]; High dose (50 mg/kg),983.0528 ± 117.355 mL/min/kg
same,Cmax,[1]; High dose (50 mg/kg),64.25 ± 1.98 ng/mL
same,MRTlast,[1]; High dose (50 mg/kg),5.85 ± 0.13 h
same,T1/2λz,[1]; High dose (50 mg/kg),8.57 ± 0.22 h
same,Tmax,[1]; High dose (50 mg/kg),1.33 ± 1.41 h
same,Vd/F,[1]; High dose (50 mg/kg),828.26908 ± 70.84029 L/kg
same,λz,[1]; High dose (50 mg/kg),0.085 ± 0.0016 h⁻¹
same,AUC0-last,[1]; Low dose (10 mg/kg),318.05 ± 31.27 ng·h/mL
same,AUC0-∞,[1]; Low dose (10 mg/kg),395.88 ± 42.41 ng·h/mL
same,Cl/F,[1]; Low dose (10 mg/kg),422.673 ± 44.3642 mL/min/kg
same,Cmax,[1]; Low dose (10 mg/kg),40.99 ± 2.37 ng/mL
same,MRTlast,[1]; Low dose (10 mg/kg),7.58 ± 0.41 h
same,T1/2λz,[1]; Low dose (10 mg/kg),10.32 ± 2.22 h
same,Tmax,[1]; Low dose (10 mg/kg),1.33 ± 1.41 h
same,Vd/F,[1]; Low dose (10 mg/kg),375.07455 ± 41.94437 L/kg
same,λz,[1]; Low dose (10 mg/kg),0.068 ± 0.016 h⁻¹
same,drug concentration in the blood,[1]; at 24 h after drug administration,≤ 5 ng/mL
same,absorption and elimination in vivo,[1]; drug metabolism experiments,poorly absorbed and quickly eliminated
same,MIC,[2],8 µg/mL
same,MIC,"[2]; clinical isolate S015, Escherichia coli 1505",16 µg/mL
same,MIC,"[2]; clinical isolate S016, Escherichia coli 2101",16 µg/mL
same,MIC,"[2]; clinical isolate S017, Escherichia coli 1104",16 µg/mL
same,MIC,"[2]; clinical isolate S018, Escherichia coli 1103",16 µg/mL
same,MIC,"[2]; clinical isolate S019, Escherichia coli 1102",16 µg/mL
same,MIC,"[2]; clinical isolate S020, Escherichia coli 1204",16 µg/mL
same,MIC,"[2]; clinical isolate S021, Escherichia coli 1508",16 µg/mL
same,MIC,"[2]; clinical isolate S022, Escherichia coli 1302",16 µg/mL
same,MIC,"[2]; clinical isolate S023, Escherichia coli 1301",16 µg/mL
same,MIC,"[2]; clinical isolate S024, Escherichia coli 1213",16 µg/mL
same,MIC,"[2]; clinical isolate S025, Escherichia coli 1111",8 µg/mL
same,MIC,"[2]; clinical isolate S026, Escherichia coli 1123",8 µg/mL
same,MIC,"[2]; clinical isolate S034, Escherichia coli 1115",8 µg/mL
same,MIC,"[2]; clinical isolate S035, Escherichia coli 1114",8 µg/mL
same,MIC,"[2]; clinical isolate S036, Escherichia coli 1113",8 µg/mL
same,MIC,"[2]; clinical isolate S037, Escherichia coli 1110",8 µg/mL
same,MIC,"[2]; clinical isolate S038, Escherichia coli 1108",8 µg/mL
same,MIC,"[2]; clinical isolate S039, Escherichia coli 1105",8 µg/mL
same,MIC,"[2]; clinical isolate S040, Escherichia coli 230202",8 µg/mL
same,MIC,"[2]; clinical isolate S041, Escherichia coli 230203",8 µg/mL
same,MIC,"[2]; clinical isolate S042, Escherichia coli 230210",8 µg/mL
same,MIC,"[2]; clinical isolate S043, Escherichia coli 0807",32 µg/mL
same,MIC,"[2]; clinical isolate S044, Escherichia coli 1122",4 µg/mL
same,MIC,"[2]; clinical isolate S045, Escherichia coli 0906",4 µg/mL
same,MIC,"[2]; clinical isolate S046, Escherichia coli 0813",4 µg/mL
same,MIC,"[2]; clinical isolate S047, Escherichia coli 230209",4 µg/mL
same,MIC,"[2]; clinical isolate S048, Escherichia coli 230211",4 µg/mL
same,MIC,MRSA (BNCC 337371),8 µg/mL
same,proportions of abnormal sperm compared with the negative control group,"Mouse spermatozoa; 1009.1, 504.6 and 252.3 mg/kg, p > 0.05",not significantly different
same,Abnormal sperms counted ratio (%): Amorphous,Mouse spermatozoa; High-dose (1009.1) mg/kg,23.6 ± 12.44%
